Patent publication US8207177B2, “Inhibitors of E1 activating enzymes” (Millennium Pharmaceuticals, Inc., priority 2006, dated 2012)

Biological target: T1, recombinant human NAE enzyme (Homo sapiens, UniProt Q8TBC4)
T1 construct: His (N); made in house; host or cells: Sf9 insect cells (baculovirus, Bac-to-Bac), purified on Ni-NTA
T1 sequence (Q8TBC4 1-463): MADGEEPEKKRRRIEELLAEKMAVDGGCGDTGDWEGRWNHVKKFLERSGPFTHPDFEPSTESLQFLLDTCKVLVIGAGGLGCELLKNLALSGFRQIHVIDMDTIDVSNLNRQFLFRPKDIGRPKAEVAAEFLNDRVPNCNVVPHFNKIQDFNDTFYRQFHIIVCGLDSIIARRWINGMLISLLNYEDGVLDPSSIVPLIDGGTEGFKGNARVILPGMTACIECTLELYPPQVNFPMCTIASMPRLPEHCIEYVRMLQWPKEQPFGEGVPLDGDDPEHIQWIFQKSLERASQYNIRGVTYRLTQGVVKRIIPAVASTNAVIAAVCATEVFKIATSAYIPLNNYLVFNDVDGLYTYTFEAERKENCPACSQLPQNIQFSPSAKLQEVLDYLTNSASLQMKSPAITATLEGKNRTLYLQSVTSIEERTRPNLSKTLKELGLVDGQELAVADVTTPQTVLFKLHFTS
T1 sequence (Q13564 1-534 partner): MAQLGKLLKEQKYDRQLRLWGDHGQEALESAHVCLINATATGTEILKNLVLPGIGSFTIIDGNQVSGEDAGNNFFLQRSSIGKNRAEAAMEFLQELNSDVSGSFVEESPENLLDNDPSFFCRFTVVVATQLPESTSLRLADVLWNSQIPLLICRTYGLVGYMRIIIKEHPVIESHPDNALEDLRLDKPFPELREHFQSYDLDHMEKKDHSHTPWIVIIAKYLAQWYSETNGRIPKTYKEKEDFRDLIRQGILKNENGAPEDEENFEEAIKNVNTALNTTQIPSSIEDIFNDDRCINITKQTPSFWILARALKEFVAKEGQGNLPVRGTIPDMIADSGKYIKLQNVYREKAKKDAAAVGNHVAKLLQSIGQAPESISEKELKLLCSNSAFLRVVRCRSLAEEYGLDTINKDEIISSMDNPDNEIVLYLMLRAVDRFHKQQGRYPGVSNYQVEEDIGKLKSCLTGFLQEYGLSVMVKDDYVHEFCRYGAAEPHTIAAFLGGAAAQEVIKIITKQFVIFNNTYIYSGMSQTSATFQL
Test: Nedd8-Activating Enzyme (NAE) HTRF Assay
Assay type: biochemical
Settings: threshold statement: less than or equal to 100 nM; 20 μM ATP, 90 minutes at 24° C.
How it was run: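 Sf9-expressed NAEα/His-NAEβ complex (0.28 nM) with 0.075 μM Nedd8-Flag, 0.01 μM Ubc12-GST, 20 μM ATP in 50 mM HEPES pH 7.5, 5 mM MgCl2, 250 μM GSH, 0.05% BSA; 90 min at 24 °C. EDTA stop, then Eu-cryptate anti-FLAG/XL-APC anti-GST detection for 3 h at 24 °C, HTRF read-out.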

Row | SMILES | IC50 [nM]
1 | C[C@@H](c1ccccc1)N(C)c1ncnc2c1ccn2[C@@H]1C[C@@H](COS(N)(=O)=O)[C@@H](O)C1 [Compound I-3, [(1S,2S,4R)-2-hydroxy-4-(4-{methyl[(1S)-1-phenylethyl]amino}-7H-pyrrolo-[2,3-d]pyrimidin-7-yl)cyclopentyl]methyl sulfamate] | ≤ 100
2 | NS(=O)(=O)OC[C@@H]1C[C@@H](n2ccc3c(N[C@H]4CCc5cc(F)ccc54)ncnc32)C[C@@H]1O [Compound I-36, [(1S,2S,4R)-4-(4-{[(1S)-5-fluoro-2,3-dihydro-1H-inden-1-yl]amino}-7H-pyrrolo-[2,3-d]pyrimidin-7-yl)-2-hydroxycyclopentyl]methyl sulfamate] | ≤ 100
3 | NS(=O)(=O)OC[C@@H]1C[C@@H](n2cnc3c(NCc4ccc(Cl)cc4)ncnc32)C[C@@H]1O [Compound I-23, ((1S,2S,4R)-4-{6-[(4-chlorobenzyl)amino]-9H-purin-9-yl}-2-hydroxycyclopentyl)methyl sulfamate] | ≤ 100
4 | NS(=O)(=O)OC[C@@H]1C[C@@H](n2ccc3c(Nc4ccccc4)ncnc32)C[C@@H]1O [Compound I-39, [(1S,2S,4R)-4-(4-anilino-7H-pyrrolo[2,3-d]pyrimidin-7-yl)-2-hydroxycyclopentyl]methyl sulfamate] | ≤ 100

Now from value to compound:

Row | IC50 [nM] | SMILES
5 | ≤ 100 | C[C@@H](Nc1ncnc2c1ccn2[C@@H]1C[C@@H](COS(N)(=O)=O)[C@@H](O)C1)c1ccccc1 [Compound I-7, [(1S,2S,4R)-2-hydroxy-4-(4-{[(1R)-1-phenylethyl]amino}-7H-pyrrolo[2,3-d]-pyrimidin-7-yl)cyclopentyl]methyl sulfamate]
6 | ≤ 100 | NS(=O)(=O)OC[C@@H]1C[C@@H](n2ccc3c(NCc4ccccc4OC(F)F)ncnc32)C[C@@H]1O [Compound I-2, [(1S,2S,4R)-4-(4-{[2-(difluoromethoxy)benzyl]amino}-7H-pyrrolo[2,3-d]-pyrimidin-7-yl)-2-hydroxycyclopentyl]methyl sulfamate]
7 | ≤ 100 | NS(=O)(=O)OC[C@@H]1C[C@@H](n2ccc3c(N[C@H]4CCOc5ccccc54)ncnc32)C[C@@H]1O [Compound I-12, ((1S,2S,4R)-4-{4-[(4S)-3,4-dihydro-2H-chromen-4-ylamino]-7H-pyrrolo[2,3-d]-pyrimidin-7-yl}-2-hydroxycyclopentyl)methyl sulfamate]
8 | ≤ 100 | NS(=O)(=O)OC[C@@H]1C[C@@H](n2ccc3c(N[C@H]4CCc5c(Br)cccc54)ncnc32)C[C@@H]1O [Compound I-65, [(1S,2S,4R)-4-(4-{[(1S)-4-bromo-2,3-dihydro-1H-inden-1-yl]amino}-7H-pyrrolo[2,3-d]pyrimidin-7-yl)-2-hydroxycyclopentyl]methyl sulfamate]
9 | ≤ 100 | NS(=O)(=O)OC[C@@H]1C[C@@H](n2ccc3c(NCc4ccc(Cl)cc4)ncnc32)[C@H](O)[C@@H]1O [Compound I-22, ((1S,2R,3S,4R)-4-{4-[(4-chlorobenzyl)amino]-7H-pyrrolo[2,3-d]pyrimidin-7-yl)-2,3-dihydroxycyclopentyl)methyl sulfamate]
